# Patent US20260070945A1, “MACROCYCLIC IMMUNOMODULATORS” (Bristol-Myers Squibb Company, priority 2022, published 2026)
# Where a SMILES comes first, the peptide text is derived from it. Bridges are numbered along the chain shown (N, C = ends). [ ]: non-standard residue; d: D form. The star is where a group is joined. ξ: configuration not given here. Trp(1-CH2COOH) = N[C@@H](Cc1cn(CC(=O)O)c2ccccc12)C(=O)O; Phe(3-CF3) = N[C@@H](Cc1cccc(C(F)(F)F)c1)C(=O)O; Phe(4-COOH) = N[C@@H](Cc1ccc(C(=O)O)cc1)C(=O)O; Bip = N[C@@H](Cc1ccc(-c2ccccc2)cc1)C(=O)O; Phe(3-Me) = Cc1cccc(C[C@H](N)C(=O)O)c1; NH(CH2)12COOH = O=C(O)CCCCCCCCCCCCN*; Val(3-OH) = CC(C)(O)[C@H](N)C(=O)O; Cha = N[C@@H](CC1CCCCC1)C(=O)O; ξY = NC(Cc1ccc(O)cc1)C(=O)O; Carboxymethyl = O=C(O)C*; NMeA = CN[C@@H](C)C(=O)O; Aun = NCCCCCCCCCCC(=O)O; Dab = NCC[C@H](N)C(=O)O; AEEA = NCCOCCOCC(=O)O
# Target: T1, PD-1/PD-L1 interaction (PE-labeled human PD-L1-Ig binding to Jurkat cell line over-expressing human PD-1) (Homo sapiens, UniProt Q15116)
# T1 construct: expressed in transfected cells; host or cells: Jurkat
# Test: Jurkat-PD-1 Cell Binding High-Content Screening Assay (CBA)
# Conditions: Jurkat-hPD-1 cells, PE-labeled PD-L1-Ig 20 nM final; read-out: Jurkat HPD1 PDL1 IC50
# How it was run: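 Jurkat cells overexpressing human PD-1 (8×10^3/well, DMEM + 10% FCS) preincubated with compound 2 h at 37 °C, then PE-labelled human PD-L1-Ig (20 nM final) for 1 h. Cells fixed in paraformaldehyde with Hoechst 33342; bound PD-L1 quantified by high-content imaging.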
# T1 sequence (Q15116 25-288): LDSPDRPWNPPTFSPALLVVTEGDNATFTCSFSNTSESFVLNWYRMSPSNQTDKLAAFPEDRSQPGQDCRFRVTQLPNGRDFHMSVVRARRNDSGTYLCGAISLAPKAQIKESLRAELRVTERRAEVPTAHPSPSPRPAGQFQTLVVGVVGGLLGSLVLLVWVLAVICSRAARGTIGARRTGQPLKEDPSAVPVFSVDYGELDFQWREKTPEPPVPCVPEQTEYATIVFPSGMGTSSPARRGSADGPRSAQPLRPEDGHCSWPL
row,Compound,IC50
1,CC(C)C[C@@H]1NC(=O)[C@H](Cc2c[nH]c3ccccc23)NC(=O)[C@H](CC(=O)O)NC(=O)[C@H](Cc2ccc(C(=O)O)cc2)NC(=O)[C@H](Cc2ccc(OCC(=O)O)cc2)NC(=O)CSC[C@@H](C(=O)N[C@@H](CCN)C(=O)NCCOCCOCC(=O)NCCCCCCCCCCC(=O)O)NC(=O)[C@H](CCC(N)=O)NC(=O)[C@H](C(C)C)NC(=O)[C@H](CC2CCCCC2)NC(=O)[C@H](CCN)NC(=O)[C@@H](CC(C)C)NC(=O)[C@H](C)N(C)C(=O)[C@H](C(C)C)NC(=O)[C@H](Cc2ccc(-c3ccccc3)cc2)NC1=O [Example 1126] ({CH2CO}-Y(Carboxymethyl)[Phe(4-COOH)]DWL[Bip]V[NMeA][dL][Dab][Cha]VQC[Dab][AEEA][Aun]-OH; thioether N-14),3.4 nM
2,CC(C)C[C@@H]1NC(=O)[C@H](Cc2c[nH]c3ccccc23)NC(=O)[C@H](CC(=O)O)NC(=O)[C@H](Cc2ccc(C(=O)O)cc2)NC(=O)[C@H](Cc2ccc(OCC(=O)O)cc2)NC(=O)CSC[C@@H](C(=O)N[C@@H](CCN)C(=O)NCCOCCOCC(=O)NCCCCCCCCCCC(=O)O)NC(=O)[C@H](CCN)NC(=O)[C@H](C(C)(C)O)NC(=O)[C@H](CC2CCCCC2)NC(=O)[C@H](CCN)NC(=O)[C@@H](CC(C)C)NC(=O)[C@H](C)N(C)C(=O)[C@H](C(C)C)NC(=O)[C@H](Cc2ccc(-c3ccccc3)cc2)NC1=O [Example 1127] ({CH2CO}-Y(Carboxymethyl)[Phe(4-COOH)]DWL[Bip]V[NMeA][dL][Dab][Cha][Val(3-OH)][Dab]C[Dab][AEEA][Aun]-OH; thioether N-14),3.8 nM
3,CC(C)C[C@@H]1NC(=O)[C@H](Cc2c[nH]c3ccccc23)NC(=O)[C@H](CC(=O)O)NC(=O)[C@H](Cc2ccc(C(=O)O)cc2)NC(=O)[C@H](Cc2ccc(OCC(=O)O)cc2)NC(=O)CSC[C@@H](C(=O)N[C@@H](CCN)C(=O)NCCOCCOCC(=O)NCCCCCCCCCCC(=O)O)NC(=O)[C@H](Cc2cnc[nH]2)NC(=O)[C@H](C(C)(C)O)NC(=O)[C@H](CC2CCCCC2)NC(=O)[C@H](CCN)NC(=O)[C@@H](CC(C)C)NC(=O)[C@H](C)N(C)C(=O)[C@H](C(C)C)NC(=O)[C@H](Cc2ccc(-c3ccccc3)cc2)NC1=O [Example 1129] ({CH2CO}-Y(Carboxymethyl)[Phe(4-COOH)]DWL[Bip]V[NMeA][dL][Dab][Cha][Val(3-OH)]HC[Dab][AEEA][Aun]-OH; thioether N-14),6.7 nM
4,COC[C@@H]1NC(=O)CSC[C@@H](C(=O)N[C@@H](CCN)C(=O)NCCCCCCCCCCCCC(=O)O)NC(=O)[C@H](CCC(=O)O)NC(=O)[C@H](C(C)C)NC(=O)[C@H](CC2CCCCC2)NC(=O)[C@H](CCN)NC(=O)[C@@H](CC(C)C)NC(=O)[C@H](C)N(C)C(=O)[C@H](CCC(N)=O)NC(=O)[C@H](Cc2ccc(-c3ccccc3)cc2)NC(=O)[C@H](Cc2ccc(C(=O)O)cc2)NC(=O)[C@H](Cc2cccc(C(F)(F)F)c2)NC(=O)[C@H](CC(=O)O)NC(=O)[C@H](Cc2ccc(OCC(=O)O)cc2)NC1=O [Example 1135] ({CH2CO}-S(Me)Y(Carboxymethyl)D[Phe(3-CF3)][Phe(4-COOH)][Bip]Q[NMeA][dL][Dab][Cha]VEC[Dab]-{NH(CH2)12COOH}; thioether N-14),12.5 nM
5,COC[C@@H]1NC(=O)CSC[C@@H](C(=O)N[C@@H](CCN)C(=O)NCCCCCCCCCCCCC(=O)O)NC(=O)[C@H](CO)NC(=O)[C@H](C(C)(C)O)NC(=O)[C@H](CC2CCCCC2)NC(=O)[C@H](CCN)NC(=O)[C@@H](CC(C)C)NC(=O)[C@H](C)N(C)C(=O)[C@H](CCC(N)=O)NC(=O)[C@H](Cc2ccc(-c3ccccc3)cc2)NC(=O)[C@H](Cc2ccc(C(=O)O)cc2)NC(=O)[C@H](Cc2cccc(C(F)(F)F)c2)NC(=O)[C@H](CC(=O)O)NC(=O)[C@H](Cc2ccc(OCC(=O)O)cc2)NC1=O [Example 1136] ({CH2CO}-S(Me)Y(Carboxymethyl)D[Phe(3-CF3)][Phe(4-COOH)][Bip]Q[NMeA][dL][Dab][Cha][Val(3-OH)]SC[Dab]-{NH(CH2)12COOH}; thioether N-14),18.1 nM

# Results, then the compound that gave them:
row,IC50,Compound
1,9.9 nM,CC(C)C[C@@H]1NC(=O)[C@H](Cc2c[nH]c3ccccc23)NC(=O)[C@H](CC(=O)O)NC(=O)[C@H](Cc2ccc(C(=O)O)cc2)NC(=O)[C@H](Cc2ccc(OCC(=O)O)cc2)NC(=O)CSC[C@@H](C(=O)N[C@@H](CCN)C(=O)NCCOCCOCC(=O)NCCCCCCCCCCC(=O)O)NC(=O)[C@H](CCC(N)=O)NC(=O)[C@H](C(C)(C)O)NC(=O)[C@H](CC2CCCCC2)NC(=O)[C@H](CCN)NC(=O)[C@@H](CC(C)C)NC(=O)[C@H](C)N(C)C(=O)[C@H](C(C)C)NC(=O)[C@H](Cc2ccc(-c3ccccc3)cc2)NC1=O [Example 1125] ({CH2CO}-Y(Carboxymethyl)[Phe(4-COOH)]DWL[Bip]V[NMeA][dL][Dab][Cha][Val(3-OH)]QC[Dab][AEEA][Aun]-OH; thioether N-14)
2,12.3 nM,CC(C)C[C@@H]1NC(=O)[C@H](Cc2c[nH]c3ccccc23)NC(=O)[C@H](CC(=O)O)NC(=O)[C@H](Cc2ccc(C(=O)O)cc2)NC(=O)[C@H](Cc2ccc(OCC(=O)O)cc2)NC(=O)CSC[C@@H](C(=O)N[C@@H](CCN)C(=O)NCCOCCOCC(=O)NCCCCCCCCCCC(=O)O)NC(=O)[C@H](Cc2cnc[nH]2)NC(=O)[C@H](C(C)C)NC(=O)[C@H](CC2CCCCC2)NC(=O)[C@H](CCN)NC(=O)[C@@H](CC(C)C)NC(=O)[C@H](C)N(C)C(=O)[C@H](C(C)C)NC(=O)[C@H](Cc2ccc(-c3ccccc3)cc2)NC1=O [Example 1130] ({CH2CO}-Y(Carboxymethyl)[Phe(4-COOH)]DWL[Bip]V[NMeA][dL][Dab][Cha]VHC[Dab][AEEA][Aun]-OH; thioether N-14)
3,29.3 nM,Cc1cccc(C[C@@H]2NC(=O)[C@H](CC(=O)O)NC(=O)[C@H](Cc3cn(CC(=O)O)c4ccccc34)NC(=O)[C@H](CCN)NC(=O)CSC[C@@H](C(=O)N[C@@H](CCN)C(=O)NCCCCCCCCCCC(=O)O)NC(=O)[C@H]([C@@H](C)O)NC(=O)[C@H](C(C)C)NC(=O)[C@H](CC3CCCCC3)NC(=O)[C@H](CCN)NC(=O)[C@@H](CC(C)C)NC(=O)[C@H](C)N(C)C(=O)[C@H](Cc3ccc(OCC(=O)O)cc3)NC(=O)[C@H](Cc3ccc(-c4ccccc4)cc3)NC(=O)C(Cc3ccc(OCC(=O)O)cc3)NC2=O)c1 (stereo partly drawn) [Example 1133] ({CH2CO}-[Dab][Trp(1-CH2COOH)]D[Phe(3-Me)][ξY](Carboxymethyl)[Bip]Y(Carboxymethyl)[NMeA][dL][Dab][Cha]VTC[Dab][Aun]-OH; thioether N-14)
4,15.3 nM,COC[C@@H]1NC(=O)CSC[C@@H](C(=O)N[C@@H](CCN)C(=O)NCCCCCCCCCCCCC(=O)O)NC(=O)[C@H](CC(=O)O)NC(=O)[C@H](C(C)(C)O)NC(=O)[C@H](CC2CCCCC2)NC(=O)[C@H](CCN)NC(=O)[C@@H](CC(C)C)NC(=O)[C@H](C)N(C)C(=O)[C@H](CCC(N)=O)NC(=O)[C@H](Cc2ccc(-c3ccccc3)cc2)NC(=O)[C@H](Cc2ccc(C(=O)O)cc2)NC(=O)[C@H](Cc2cccc(C(F)(F)F)c2)NC(=O)[C@H](CC(=O)O)NC(=O)[C@H](Cc2ccc(OCC(=O)O)cc2)NC1=O [Example 1134] ({CH2CO}-S(Me)Y(Carboxymethyl)D[Phe(3-CF3)][Phe(4-COOH)][Bip]Q[NMeA][dL][Dab][Cha][Val(3-OH)]DC[Dab]-{NH(CH2)12COOH}; thioether N-14)
